Several values for one entry are separate records, joined by “and”; a condition that tells them apart may be missing. Equal values may be shown once.
Columns and labels:
Assay type in all cases: cell-based
320 non-olfactory GPCRs [1] = molecular target: 320 non-olfactory GPCRs (Homo sapiens, UniProt Q96LA9); settings: receptor MRGPRX4; replicate values, Fig_4g
320 non-olfactory GPCRs [2] = molecular target: T1, 320 non-olfactory GPCRs (Homo sapiens, UniProt Q96LB2); settings: receptor MRGPRX1; replicate values, Fig_4g
T1 construct: expressed in transfected cells; host or cells: HTLA cells
T1 sequence (Q96LB2 whole entry): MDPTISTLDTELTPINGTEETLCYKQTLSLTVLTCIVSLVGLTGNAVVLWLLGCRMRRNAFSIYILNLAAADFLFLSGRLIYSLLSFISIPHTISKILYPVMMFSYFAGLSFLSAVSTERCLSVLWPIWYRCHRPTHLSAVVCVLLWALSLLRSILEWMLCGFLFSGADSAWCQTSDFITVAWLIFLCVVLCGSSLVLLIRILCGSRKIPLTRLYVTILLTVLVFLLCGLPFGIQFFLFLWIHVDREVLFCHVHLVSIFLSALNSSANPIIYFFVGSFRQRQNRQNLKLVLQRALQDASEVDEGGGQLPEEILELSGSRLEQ

320 non-olfactory GPCRs [3] = molecular target: T2, 320 non-olfactory GPCRs (Homo sapiens, UniProt P29274)
T2 construct: expressed in transfected cells; host or cells: HTLA cells
T2 sequence (P29274 whole entry): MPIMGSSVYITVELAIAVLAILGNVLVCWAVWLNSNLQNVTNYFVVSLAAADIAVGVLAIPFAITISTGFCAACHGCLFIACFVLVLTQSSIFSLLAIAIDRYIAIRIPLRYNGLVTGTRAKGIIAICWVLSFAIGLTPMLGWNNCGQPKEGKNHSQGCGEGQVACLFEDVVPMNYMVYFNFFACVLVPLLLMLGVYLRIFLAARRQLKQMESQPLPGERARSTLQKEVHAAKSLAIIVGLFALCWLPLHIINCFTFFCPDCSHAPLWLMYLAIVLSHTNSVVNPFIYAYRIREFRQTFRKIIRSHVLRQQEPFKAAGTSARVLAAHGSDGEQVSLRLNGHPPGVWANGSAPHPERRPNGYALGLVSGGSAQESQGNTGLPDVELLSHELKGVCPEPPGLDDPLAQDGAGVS

320 non-olfactory GPCRs [4] = molecular target: T3, 320 non-olfactory GPCRs (Homo sapiens, UniProt Q96RI0)
T3 construct: expressed in transfected cells; host or cells: HTLA cells
T3 sequence (Q96RI0 18-385): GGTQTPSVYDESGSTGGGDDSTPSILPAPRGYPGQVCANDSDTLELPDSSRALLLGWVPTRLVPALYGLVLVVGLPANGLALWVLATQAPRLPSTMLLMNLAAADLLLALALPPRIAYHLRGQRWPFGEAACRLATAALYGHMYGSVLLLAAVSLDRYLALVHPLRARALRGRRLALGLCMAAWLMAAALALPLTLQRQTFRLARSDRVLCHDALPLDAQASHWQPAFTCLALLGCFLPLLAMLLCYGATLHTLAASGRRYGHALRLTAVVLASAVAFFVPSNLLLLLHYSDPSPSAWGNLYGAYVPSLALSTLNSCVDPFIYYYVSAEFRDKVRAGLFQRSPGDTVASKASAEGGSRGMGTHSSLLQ
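For Fold of Basal in this document: compound tested at 1 µM final concentration.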
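For GPCRome agonism screen response in this document: fold over basal response of each receptor without drug.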

320 non-olfactory GPCRs (Homo sapiens, UniProt Q96LA9), sequence (Q96LA9 whole entry): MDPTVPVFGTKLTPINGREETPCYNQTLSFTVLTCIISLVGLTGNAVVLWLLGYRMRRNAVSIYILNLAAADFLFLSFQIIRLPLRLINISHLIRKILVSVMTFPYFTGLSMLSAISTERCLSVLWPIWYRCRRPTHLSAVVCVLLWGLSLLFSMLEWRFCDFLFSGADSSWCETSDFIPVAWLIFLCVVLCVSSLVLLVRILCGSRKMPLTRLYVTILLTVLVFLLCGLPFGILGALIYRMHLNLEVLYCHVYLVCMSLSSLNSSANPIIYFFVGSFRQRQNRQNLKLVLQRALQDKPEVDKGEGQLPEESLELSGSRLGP

Structure (SMILES): CCOc1cccc2cc(C(C)NCC3(O)CCCCC3)oc12 (stereo not shown) [O4LE6]
- GPCRome agonism screen response (320 non-olfactory GPCRs [1]): 0.3813 and 0.7022 and 0.804 and 1.112
- GPCRome agonism screen response (320 non-olfactory GPCRs [2]): 1.163 and 1.233 and 1.345 and 0.8039
- Fold of Basal (320 non-olfactory GPCRs [3]): 0.5279 and 0.6435 and 0.5264 and 0.5735
- Fold of Basal (320 non-olfactory GPCRs [4]): 0.98 and 0.6043 and 0.591 and 0.7202

Reference: PMC7044277 (Nature Communications, 2020)
